Laboratory results published in patent US9555014B2, “Therapeutic regimens” (Radius Health, Inc., priority 2010, dated 2017).
Counter-ions that a name gives are not always drawn.

Assays:
endometrium = assay: Preclinical rat models measuring estrogenic agonist effects on the endometrium; format: in vivo
Source text: The results of a phase 2a clinical study assessing the effects of the selective estrogen receptor modulator (SERM) (R)-6-(2-(ethyl(4-(2-(ethylamino)ethyl)benzyl)amino)-4-methoxyphenyl)-5,6,7,8-tetrahydronaphthalen-2-ol on women suffering from hot flushes are reported herein.

[1] = tested on: postmenopausal women with frequent, moderate to severe vasomotor symptoms (hot flashes); assay: Phase 2a study: hot flash frequency, severity and composite score; format: in vivo, human (postmenopausal women); conditions: for Composite Scores by Week: mean; for Mean Severity Scores by Week / Weekly Mean Frequency of Mild, Moderate and Severe Hot Flash Numbers / Weekly Mean Frequency of Moderate and Severe Hot Flash Numbers: mean (SD)
Source text: A phase 2a study was undertaken to assess the effect of (R)-6-(2-(ethyl(4-(2-(ethylamino)ethyl)benzyl)amino)-4-methoxyphenyl)-5,6,7,8-tetrahydronaphthalen-2-ol dihydrochloride (referred to as “drug” in tables below) to alleviate hot flashes in postmenopausal women. The study design and objectives are detailed below.
This is a randomized, placebo-controlled, double-blind, parallel-group, Phase 2, multi-center, dose-finding study to evaluate the effects of (R)-6-(2-(ethyl(4-(2-(ethylamino)ethyl)benzyl)amino)-4-methoxyphenyl)-5,6,7,8-tetrahydronaphthalen-2-ol dihydrochloride in the treatment of vasomotor symptoms in postmenopausal women.
A total of 100 eligible patients will be randomized to receive one of 5 blinded treatment regimens. (R)-6-(2-(ethyl(4-(2-(ethylamino)ethyl)benzyl)amino)-4-methoxyphenyl)-5,6,7,8-tetrahydronaphthalen-2-ol dihydrochloride at doses 0, 10, 25, 50 or 100 mg will be dosed for 28-days.
Patients will document in real time hot flash frequency and severity according to a predetermined scale, in the provided electronic or paper Study Diary. Study Diary entries of hot flash frequency and severity and associated symptoms will be reviewed at each study visit. Serum markers of estrogen effect will be measured at specific study visits while on treatment.
The efficacy endpoints assessed are: • Change in frequency of hot flashes over time • Change in severity of hot flashes over time; • Change in composite score of hot flashes over time (frequency×severity)
(R)-6-(2-(ethyl(4-(2-(ethylamino)ethyl)benzyl)amino)-4-methoxyphenyl)-5,6,7,8-tetrahydronaphthalen-2-ol dihydrochloride was provided by sponsor in capsule form for oral administration. All doses (0, 10, 25, 50 and 100 mg) were provided as identical presentations. Each patient was provided with 2 containers of 28-capsules each at the start of treatment and took one capsule from each container every day for 28-days. Placebo contained the same excipients as active medication, but without (R)-6-(2-(ethyl(4-(2-(ethylamino)ethyl)benzyl)amino)-4-methoxyphenyl)-5,6,7,8-tetrahydronaphthalen-2-ol dihydrochloride. The patients were instructed to take the capsules orally in the fasted state (morning).
Changes in the efficacy endpoints of frequency, severity, and composite score of hot flashes over time; associated hot flash symptoms (palpitations, insomnia, joint aches, and headaches), PD markers of estrogen effect (FSH, LH, and lipid profile), drug levels, and MRS were to be summarized using descriptive statistics. Frequency, severity, and composite score of hot flashes over time were to be analyzed using repeated measures analysis of variance (ANOVA) with factors for treatment (treatment groups), time (study day) and their interaction. A linear trend test for treatment groups (placebo, and 10, 25, 50, 100 mg doses of drug) and for study day as well as any potential interaction between the two was to be included as part of the analyses by including both dose and time as continuous variables in the ANOVA model. Pair-wise comparisons of change from baseline were to be tested between the placebo group and each drug dose group for each timepoint; the mean difference together with a 95% confidence interval of the difference was to be presented for placebo compared with each active treatment group. Nominal p-values at Week 4 were to be presented. In addition, graphical presentations of mean (±standard error of the mean) and percent group responses over time together with repeated measures ANOVA to assess potential trend in responses over time in each dose group were to be presented. For the associated vasomotor symptoms (palpitations, insomnia, joint aches, and headaches collected in the patient diaries), patient and event frequencies were to be summarized by treatment week and treatment group.
Hot flashes were also scored according to their severity with a mild hot flash scored a “1”, a moderate hot flash scored a “2” and a severe hot flash scored a “3”. […]

## CCNCCc1ccc(CN(CC)c2cc(OC)ccc2[C@@H]2CCc3cc(O)ccc3C2)cc1 [drug, (R)-6-(2-(ethyl(4-(2-(ethylamino)ethyl)benzyl)amino)-4-methoxyphenyl)-5,6,7,8-tetrahydronaphthalen-2-ol dihydrochloride]
endometrium
  estrogen agonist stimulation effects on the endometrium: negligible estrogen agonist stimulation effects
[1]; 10 mg daily PO, Week 1, ITT
  Composite Scores by Week: 73.68
  Mean Severity Scores by Week: 1.99 (0.460)
  Weekly Mean Frequency of Mild, Moderate and Severe Hot Flash Numbers: 36.0 (18.97)
  Weekly Mean Frequency of Moderate and Severe Hot Flash Numbers: 30.4 (18.92)
[1]; 10 mg daily PO, Week 2, ITT
  Composite Scores by Week: 47.75
  Mean Severity Scores by Week: 1.80 (0.514)
  Weekly Mean Frequency of Mild, Moderate and Severe Hot Flash Numbers: 27.2 (15.16)
  Weekly Mean Frequency of Moderate and Severe Hot Flash Numbers: 18.5 (13.34)
[1]; 10 mg daily PO, Week 3, ITT
  Composite Scores by Week: 37.15
  Mean Severity Scores by Week: 1.84 (0.570)
  Weekly Mean Frequency of Mild, Moderate and Severe Hot Flash Numbers: 21.2 (12.99)
  Weekly Mean Frequency of Moderate and Severe Hot Flash Numbers: 14.5 (11.92)
[1]; 10 mg daily PO, Week 4, ITT
  Composite Scores by Week: 34.35
  Mean Severity Scores by Week: 1.86 (0.562)
  Weekly Mean Frequency of Mild, Moderate and Severe Hot Flash Numbers: 19.1 (12.95)
  Weekly Mean Frequency of Moderate and Severe Hot Flash Numbers: 13.4 (11.54)
[1]; 10 mg dose vs placebo and 25, 50, 100 mg, Table 8 / FIG. 3
  reduction in severity of hot flashes compared with other groups: greatest reduction in severity of hot flashes at all time points
[1]; 10 mg group vs placebo and 25, 50, 100 mg, Table 6 / FIG. 1
  reduction in moderate and severe hot flashes compared with other groups: greatest reduction in hot flashes at each weekly time point
[1]; 10 mg group vs placebo and 25, 50, 100 mg, Table 7
  reduction in all (mild, moderate and severe) hot flashes compared with other groups: greatest reduction in hot flashes at each weekly time point
[1]; 10 mg group vs placebo and 25, 50, 100 mg, Table 9 / FIG. 4
  composite score reduction compared with other groups: greatest composite score reduction at each weekly timepoint
[1]; 10 mg group, Baseline, ITT
  Weekly Mean Frequency of Mild, Moderate and Severe Hot Flash Numbers: 66.0 (13.89)
  Weekly Mean Frequency of Moderate and Severe Hot Flash Numbers: 63.1 (14.23)
[1]; 10 mg group, Baseline, ITT, mild=1, moderate=2, severe=3
  Mean Severity Scores by Week: 2.37 (0.347)
[1]; 10 mg group, Baseline, ITT, frequency x severity
  Composite Scores by Week: 156.45
[1]; 25 mg daily PO, Week 1, ITT
  Composite Scores by Week: 142.71
  Mean Severity Scores by Week: 2.12 (0.392)
  Weekly Mean Frequency of Mild, Moderate and Severe Hot Flash Numbers: 64.4 (48.88)
  Weekly Mean Frequency of Moderate and Severe Hot Flash Numbers: 57.7 (50.49)
[1]; 25 mg daily PO, Week 2, ITT
  Composite Scores by Week: 102.82
  Mean Severity Scores by Week: 2.09 (0.447)
  Weekly Mean Frequency of Mild, Moderate and Severe Hot Flash Numbers: 48.0 (48.80)
  Weekly Mean Frequency of Moderate and Severe Hot Flash Numbers: 42.3 (49.73)
[1]; 25 mg daily PO, Week 3, ITT
  Composite Scores by Week: 102.59
  Mean Severity Scores by Week: 2.14 (0.408)
  Weekly Mean Frequency of Mild, Moderate and Severe Hot Flash Numbers: 46.6 (56.27)
  Weekly Mean Frequency of Moderate and Severe Hot Flash Numbers: 43.3 (57.15)
[1]; 25 mg daily PO, Week 4, ITT
  Composite Scores by Week: 89.59
  Mean Severity Scores by Week: 2.06 (0.404)
  Weekly Mean Frequency of Mild, Moderate and Severe Hot Flash Numbers: 42.4 (53.18)
  Weekly Mean Frequency of Moderate and Severe Hot Flash Numbers: 37.4 (54.76)
[1]; 25 mg group, Baseline, ITT
  Weekly Mean Frequency of Mild, Moderate and Severe Hot Flash Numbers: 75.8 (46.46)
  Weekly Mean Frequency of Moderate and Severe Hot Flash Numbers: 65.9 (44.30)
[1]; 25 mg group, Baseline, ITT, mild=1, moderate=2, severe=3
  Mean Severity Scores by Week: 2.26 (0.348)
[1]; 25 mg group, Baseline, ITT, frequency x severity
  Composite Scores by Week: 165.47
[1]; 50 mg daily PO, Week 1, ITT
  Composite Scores by Week: 104.35
  Mean Severity Scores by Week: 1.92 (0.402)
  Weekly Mean Frequency of Mild, Moderate and Severe Hot Flash Numbers: 54.0 (27.15)
  Weekly Mean Frequency of Moderate and Severe Hot Flash Numbers: 41.7 (23.79)
[1]; 50 mg daily PO, Week 2, ITT
  Composite Scores by Week: 87.78
  Mean Severity Scores by Week: 1.88 (0.535)
  Weekly Mean Frequency of Mild, Moderate and Severe Hot Flash Numbers: 45.8 (25.16)
  Weekly Mean Frequency of Moderate and Severe Hot Flash Numbers: 32.8 (25.52)
[1]; 50 mg daily PO, Week 3, ITT
  Composite Scores by Week: 77.67
  Mean Severity Scores by Week: 1.86 (0.544)
  Weekly Mean Frequency of Mild, Moderate and Severe Hot Flash Numbers: 40.5 (22.37)
  Weekly Mean Frequency of Moderate and Severe Hot Flash Numbers: 29.6 (25.09)
[1]; 50 mg daily PO, Week 4, ITT
  Composite Scores by Week: 75.06
  Mean Severity Scores by Week: 1.83 (0.568)
  Weekly Mean Frequency of Mild, Moderate and Severe Hot Flash Numbers: 37.9 (23.45)
  Weekly Mean Frequency of Moderate and Severe Hot Flash Numbers: 29.4 (26.53)
[1]; 50 mg group, Baseline, ITT
  Weekly Mean Frequency of Mild, Moderate and Severe Hot Flash Numbers: 76.0 (36.96)
  Weekly Mean Frequency of Moderate and Severe Hot Flash Numbers: 71.9 (36.92)
[1]; 50 mg group, Baseline, ITT, mild=1, moderate=2, severe=3
  Mean Severity Scores by Week: 2.14 (0.313)
[1]; 50 mg group, Baseline, ITT, frequency x severity
  Composite Scores by Week: 162.19
[1]; 100 mg daily PO, Week 1, ITT
  Composite Scores by Week: 104.35
  Mean Severity Scores by Week: 2.04 (0.334)
  Weekly Mean Frequency of Mild, Moderate and Severe Hot Flash Numbers: 48.6 (23.32)
  Weekly Mean Frequency of Moderate and Severe Hot Flash Numbers: 41.9 (24.23)
[1]; 100 mg daily PO, Week 2, ITT
  Composite Scores by Week: 87.18
  Mean Severity Scores by Week: 2.01 (0.406)
  Weekly Mean Frequency of Mild, Moderate and Severe Hot Flash Numbers: 41.6 (27.37)
  Weekly Mean Frequency of Moderate and Severe Hot Flash Numbers: 35.6 (28.06)
[1]; 100 mg daily PO, Week 3, ITT
  Composite Scores by Week: 59.75
  Mean Severity Scores by Week: 1.88 (0.473)
  Weekly Mean Frequency of Mild, Moderate and Severe Hot Flash Numbers: 29.4 (23.91)
  Weekly Mean Frequency of Moderate and Severe Hot Flash Numbers: 24.5 (24.06)
[1]; 100 mg daily PO, Week 4, ITT
  Composite Scores by Week: 43.67
  Mean Severity Scores by Week: 1.89 (0.484)
  Weekly Mean Frequency of Mild, Moderate and Severe Hot Flash Numbers: 23.1 (19.45)
  Weekly Mean Frequency of Moderate and Severe Hot Flash Numbers: 18.6 (19.16)
[1]; 100 mg group, Baseline, ITT
  Weekly Mean Frequency of Mild, Moderate and Severe Hot Flash Numbers: 63.6 (13.23)
  Weekly Mean Frequency of Moderate and Severe Hot Flash Numbers: 58.5 (12.67)
[1]; 100 mg group, Baseline, ITT, mild=1, moderate=2, severe=3
  Mean Severity Scores by Week: 2.21 (0.330)
[1]; 100 mg group, Baseline, ITT, frequency x severity
  Composite Scores by Week: 140.35
